Measured values published in patent US7563764B2, “Antimicrobial peptides based on tripeptide repeats” (E. I. du Pont de Nemours and Company, priority 2004, dated 2009).
No end group written: not given here.

tested on: E. coli ATCC 25922; type: cell-based, Escherichia coli; settings: ATCC 25922, 24 h
Procedure: The term “MIC” refers to minimal inhibitory concentration and will be defined as the lowest concentration of either soluble peptide or peptide immobilized on a polymer that results in total kill of bacteria.
The minimal inhibitory concentration (MIC) for the peptides was determined in sterile microtiter plates in a final volume of 200 μL using Trypticase Soy Broth (TSB; Difco Laboratories, Detroit, Mich.) as the growth medium. Serial two-fold dilutions of the peptide stock were made in the plate wells such that concentrations ranged from 512 to 2 μg/mL in a volume of 100 μL. Each well was then inoculated with 100 μL of a dilute suspension of bacteria in TSB yielding a final concentration of 1×10^4 bacteria/mL. The final peptide concentrations ranged from […]. The assay plates were incubated at 37° C. for 24 hours inside a Bioscreen C microtitre plate reader (Thermo Labsystems; Vantaa, Finland). Optical Density (OD) of the medium at 600 nm was recorded every 20 minutes to monitor cell growth. The lowest concentration of peptide preventing bacterial growth during the 24 hr period was defined as the MIC.

Row | Sequence | MIC [µg/mL]
1 | FKAFKAFKAFKAFKAFKA [SEQ ID NO: 5, FKAFKAFKAFKAFKAFKA] | 32
2 | LKVLKVLKVLKVLKV [SEQ ID NO: 2, LKVLKVLKVLKVLKV] | 32
3 | LKALKALKALKALKR [SEQ ID NO: 1, LKALKALKALKALKR] | 64
4 | LKVLKVLKVLKVLKVLKV [SEQ ID NO: 3, LKVLKVLKVLKVLKVLKV] | 4
5 | FKAFKAFKAFKAFKA [SEQ ID NO: 4, FKAFKAFKAFKAFKA] | 128
